Assays:
[1] = system: HL-60; assay: Induction of mitochondrial membrane potential loss in human HL60 cells after 24 hrs by JC-1 staining-based flow cytometry (reference value: 28.6%); assay type: functional
[2] = system: HL-60; assay: Induction of mitochondrial membrane potential loss in human HL60 cells after 24 hrs by JC-1 staining-based flow cytometry (reference value: 24.3%); assay type: functional

Question: N#CC(C#N)=NNc1cccc(Cl)c1 [CARBONYL CYANIDE M-CHLOROPHENYLHYDRAZONE] was tested. Which Activity [1] did it give?
Answer: 62.4%

Question: And the Activity [2]?
Answer: 85.8%

Source: ChEMBL document CHEMBL4138191, “Organic arsenicals target thioredoxin reductase followed by oxidative stress and mitochondrial dysfunction resulting in apoptosis” (Eur J Med Chem, 2018)
